{"source": "patent US6927210B1", "about": "“Ectoparasiticidal aqueous suspension formulations of spinosyns” (Eli Lilly and Company, priority 1999, dated 2005)", "experiment": "Solution state of spinosad in dip water", "format": "physicochemical", "settings": "5 and 50 ppm", "experimental": "Two trials were conducted to determine the degree to which spinosad is removed (stripped) from dip water after dipping sheep. In the trials, spinosad dip tank concentrations of 50 ppm and 5 ppm were prepared from an aqueous suspension containing 25 g/L of spinosad. Both trials involved dipping 10 Dorset-cross shorn sheep in 70 gallons (265 liters) of treated water. Each animal was dipped for 30 seconds duration, with the head immersed twice. Samples of dip water were taken for HPLC analysis, initially and after each sheep was dipped. The pH of the water was also determined after each animal was dipped. A dip tank concentration of 5 ppm of spinosad should provide lice control on sheep."}
{"substance": "spinosad", "values": [{"measurement": "Solution state in dip water (in words)", "value": "in true solution at 5 and 50 ppm concentration"}]}
